Measurements taken from the supplement of paper PMC10307832.

Key:
Experiment in all cases: relative viability (nuclei count vs DMSO), 5 days (fraction); higher = more cells survive
CAL-12T = tested on: CAL-12T
Procedure, shortened: (§1)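 The day after seeding in 1536-well plates, lung cancer cell lines were treated by pin tool with a single drug, or with a fixed anchor-drug dose together with five library-drug doses (not always all listed) in √10 steps. After 5 days, a combined fix-and-stain solution (final 0.05% Triton X-100, 1% formaldehyde, 1 ug/ml Hoechst) was added. Nuclei counted on 4× images gave relative viability as treated counts over vehicle counts, reported as the median of duplicate plates.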

EKVX = tested on: EKVX
Procedure, shortened: as §1

H3255 = tested on: H3255
Procedure, shortened: as §1

HCC-15 = tested on: HCC-15
Procedure, shortened: as §1

HCC-827 = tested on: HCC-827
Procedure, shortened: as §1

LCLC-97TM1 = tested on: LCLC-97TM1
Procedure, shortened: as §1

LK-2 = tested on: LK-2
Procedure, shortened: as §1

NCI-H1355 = tested on: NCI-H1355
Procedure, shortened: as §1

NCI-H1563 = tested on: NCI-H1563
Procedure, shortened: as §1

NCI-H1650 = tested on: NCI-H1650
Procedure, shortened: as §1

NCI-H1734 = tested on: NCI-H1734
Procedure, shortened: as §1

NCI-H1755 = tested on: NCI-H1755
Procedure, shortened: as §1

NCI-H1975 = tested on: NCI-H1975
Procedure, shortened: as §1

NCI-H2228 = tested on: NCI-H2228
Procedure, shortened: as §1

NCI-H2342 = tested on: NCI-H2342
Procedure, shortened: as §1

NCI-H2405 = tested on: NCI-H2405
Procedure, shortened: as §1

NCI-H322M = tested on: NCI-H322M
Procedure, shortened: as §1

NCI-H520 = tested on: NCI-H520
Procedure, shortened: as §1

NCI-H661 = tested on: NCI-H661
Procedure, shortened: as §1

PC-14 = tested on: PC-14
Procedure, shortened: as §1

PC-3 [JPC-3] = tested on: PC-3 [JPC-3]
Procedure, shortened: as §1

RERF-LC-KJ = tested on: RERF-LC-KJ
Procedure, shortened: as §1

O=c1cc(N2CCOCC2)oc2c(-c3cccc4c3sc3ccccc34)cccc12 + Nc1nc2[nH]cc(CCc3ccc(C(=O)N[C@@H](CCC(=O)O)C(=O)O)cc3)c2c(=O)[nH]1 [Pemetrexed] (partner 0.2 µM)
relative viability (CAL-12T; first compound 0.01 µM): 1.15 | relative viability (CAL-12T; first compound 0.03162 µM): 1.16 | relative viability (CAL-12T; first compound 0.1 µM): 1.29 | relative viability (CAL-12T; first compound 0.3162 µM): 1.13 | relative viability (CAL-12T; first compound 1 µM): 1.09 | relative viability (EKVX; first compound 0.01 µM): 0.41 | relative viability (EKVX; first compound 0.03162 µM): 0.384 | relative viability (EKVX; first compound 0.1 µM): 0.419 | relative viability (EKVX; first compound 0.3162 µM): 0.365 | relative viability (EKVX; first compound 1 µM): 0.362 | relative viability (H3255; first compound 0.01 µM): 0.552 | relative viability (H3255; first compound 0.03162 µM): 0.617 | relative viability (H3255; first compound 0.1 µM): 0.531 | relative viability (H3255; first compound 0.3162 µM): 0.585 | relative viability (H3255; first compound 1 µM): 0.553 | relative viability (HCC-15; first compound 0.01 µM): 0.214 | relative viability (HCC-15; first compound 0.03162 µM): 0.221 | relative viability (HCC-15; first compound 0.1 µM): 0.225 | relative viability (HCC-15; first compound 0.3162 µM): 0.205 | relative viability (HCC-15; first compound 1 µM): 0.195 | relative viability (HCC-827; first compound 0.01 µM): 0.264 | relative viability (HCC-827; first compound 0.03162 µM): 0.254 | relative viability (HCC-827; first compound 0.1 µM): 0.295 | relative viability (HCC-827; first compound 0.3162 µM): 0.271 | relative viability (HCC-827; first compound 1 µM): 0.3 | relative viability (LCLC-97TM1; first compound 0.01 µM): 0.189 | relative viability (LCLC-97TM1; first compound 0.03162 µM): 0.162 | relative viability (LCLC-97TM1; first compound 0.1 µM): 0.202 | relative viability (LCLC-97TM1; first compound 0.3162 µM): 0.162 | relative viability (LCLC-97TM1; first compound 1 µM): 0.177 | relative viability (LK-2; first compound 0.01 µM): 0.278 | relative viability (LK-2; first compound 0.03162 µM): 0.238 | relative viability (LK-2; first compound 0.1 µM): 0.296 | relative viability (LK-2; first compound 0.3162 µM): 0.238 | relative viability (LK-2; first compound 1 µM): 0.275 | relative viability (NCI-H1355; first compound 0.01 µM): 1.12 | relative viability (NCI-H1355; first compound 0.03162 µM): 0.915 | relative viability (NCI-H1355; first compound 0.1 µM): 1.05 | relative viability (NCI-H1355; first compound 0.3162 µM): 1.1 | relative viability (NCI-H1355; first compound 1 µM): 0.981 | relative viability (NCI-H1563; first compound 0.01 µM): 0.863 | relative viability (NCI-H1563; first compound 0.03162 µM): 0.778 | relative viability (NCI-H1563; first compound 0.1 µM): 0.761 | relative viability (NCI-H1563; first compound 0.3162 µM): 0.767 | relative viability (NCI-H1563; first compound 1 µM): 0.641 | relative viability (NCI-H1650; first compound 0.01 µM): 0.397 | relative viability (NCI-H1650; first compound 0.03162 µM): 0.374 | relative viability (NCI-H1650; first compound 0.1 µM): 0.35 | relative viability (NCI-H1650; first compound 0.3162 µM): 0.341 | relative viability (NCI-H1650; first compound 1 µM): 0.34 | relative viability (NCI-H1734; first compound 0.01 µM): 0.453 | relative viability (NCI-H1734; first compound 0.03162 µM): 0.425 | relative viability (NCI-H1734; first compound 0.1 µM): 0.406 | relative viability (NCI-H1734; first compound 0.3162 µM): 0.412 | relative viability (NCI-H1734; first compound 1 µM): 0.396 | relative viability (NCI-H1755; first compound 0.01 µM): 0.476 | relative viability (NCI-H1755; first compound 0.03162 µM): 0.441 | relative viability (NCI-H1755; first compound 0.1 µM): 0.425 | relative viability (NCI-H1755; first compound 0.3162 µM): 0.414 | relative viability (NCI-H1755; first compound 1 µM): 0.445 | relative viability (NCI-H1975; first compound 0.01 µM): 0.309 | relative viability (NCI-H1975; first compound 0.03162 µM): 0.27 | relative viability (NCI-H1975; first compound 0.1 µM): 0.294 | relative viability (NCI-H1975; first compound 0.3162 µM): 0.267 | relative viability (NCI-H1975; first compound 1 µM): 0.309 | relative viability (NCI-H2228; first compound 0.01 µM): 0.342 | relative viability (NCI-H2228; first compound 0.03162 µM): 0.356 | relative viability (NCI-H2228; first compound 0.1 µM): 0.396 | relative viability (NCI-H2228; first compound 0.3162 µM): 0.356 | relative viability (NCI-H2228; first compound 1 µM): 0.355 | relative viability (NCI-H2342; first compound 0.01 µM): 0.795 | relative viability (NCI-H2342; first compound 0.03162 µM): 0.753 | relative viability (NCI-H2342; first compound 0.1 µM): 0.772 | relative viability (NCI-H2342; first compound 0.3162 µM): 0.755 | relative viability (NCI-H2342; first compound 1 µM): 0.784 | relative viability (NCI-H2405; first compound 0.01 µM): 1.02 | relative viability (NCI-H2405; first compound 0.03162 µM): 1.18 | relative viability (NCI-H2405; first compound 0.1 µM): 0.943 | relative viability (NCI-H2405; first compound 0.3162 µM): 1.11 | relative viability (NCI-H2405; first compound 1 µM): 1.09 | relative viability (NCI-H322M; first compound 0.01 µM): 0.611 | relative viability (NCI-H322M; first compound 0.03162 µM): 0.613 | relative viability (NCI-H322M; first compound 0.3162 µM): 0.617 | relative viability (NCI-H322M; first compound 1 µM): 0.61 | relative viability (NCI-H520; first compound 0.01 µM): 0.646 | relative viability (NCI-H520; first compound 0.03162 µM): 0.657 | relative viability (NCI-H520; first compound 0.1 µM): 0.772 | relative viability (NCI-H520; first compound 0.3162 µM): 0.623 | relative viability (NCI-H520; first compound 1 µM): 0.659 | relative viability (NCI-H661; first compound 0.01 µM): 0.867 | relative viability (NCI-H661; first compound 0.03162 µM): 0.898 | relative viability (NCI-H661; first compound 0.1 µM): 0.95 | relative viability (NCI-H661; first compound 0.3162 µM): 0.925 | relative viability (NCI-H661; first compound 1 µM): 0.892 | relative viability (PC-14; first compound 0.01 µM): 0.133 | relative viability (PC-14; first compound 0.03162 µM): 0.153 | relative viability (PC-14; first compound 0.1 µM): 0.131 | relative viability (PC-14; first compound 0.3162 µM): 0.114 | relative viability (PC-14; first compound 1 µM): 0.132 | relative viability (PC-3 [JPC-3]; first compound 0.01 µM): 1.09 | relative viability (PC-3 [JPC-3]; first compound 0.03162 µM): 1.14 | relative viability (PC-3 [JPC-3]; first compound 0.1 µM): 1.05 | relative viability (PC-3 [JPC-3]; first compound 0.3162 µM): 1.1 | relative viability (PC-3 [JPC-3]; first compound 1 µM): 1.1 | relative viability (RERF-LC-KJ; first compound 0.01 µM): 0.474 | relative viability (RERF-LC-KJ; first compound 0.03162 µM): 0.478 | relative viability (RERF-LC-KJ; first compound 0.1 µM): 0.492 | relative viability (RERF-LC-KJ; first compound 0.3162 µM): 0.489 | relative viability (RERF-LC-KJ; first compound 1 µM): 0.423
